Non-standard residues stand in square brackets, D forms with d. Residues, ends and D or L forms follow the SMILES beside them. Dab = NCC[C@H](N)C(=O)O
Test system: Paenibacillus sp. YYML68
Assay type: cell-based
Conditions: not told
Description: Figure S5. Evaluation of (DabFF)3K-FAM permeation into Paenibacillus sp. YYML68. (DabFF)3Dab- […]
FAM permeation was performed at 2 µM concentration in PBS at room temperature (23℃) for 1 h.
Untreated […] strain samples were used as a negative control (NC). Green fluorescence images […]
were captured using the blue wide-excitation mirror unit (U-FBWA; Olympus). Cell integrity was […]
confirmed by bright field (BF) images. Images of (DabFF) 3Dab-FAM permeated cells and the negative […]
controls were captured at similar exposure times to allow for comparison. Scale bar is 5 µm.
Enzymes for Biocatalysis: Sources, Biocatalytic Characteristic and Bioprocesses of Marine […]
Enzymes, Trincone, A., Ed. Woodhead Publishing Limited: Cambridge, 2013; pp 4 29-464.
electrospray ionization mass spectrometry for the characterization of kappa - and iota- […]
carrageenans. Application to the hybrid iota -/nu-carrageenans. Analytical chemistry 2005, 77, […]
Cerezo, A. S.; Erra-Balsells, R.; Matulewicz, M. C., Matrix -assisted laser desorption/ionization time-of-flight (MALDI-TOF) mass spectrometry analysis of oligosaccharides and […]
oligosaccharide alditols obtained by hydrolysis of agaroses and carrageenans, two important […]
types of red seaweed polysaccharides. Carbohydrate research 2010, 345, (2), 275-83.
(1 picture or pasted object on this page, not shown here)

In the case of `NCC[C@H](NC(=O)[C@H](Cc1ccccc1)NC(=O)[C@H](Cc1ccccc1)NC(=O)[C@H](CCN)NC(=O)[C@H](Cc1ccccc1)NC(=O)[C@H](Cc1ccccc1)NC(=O)[C@H](CCN)NC(=O)[C@H](Cc1ccccc1)NC(=O)[C@H](Cc1ccccc1)NC(=O)[C@@H](N)CCN)C(=O)O` [(DabFF)3Dab] (H-[Dab]FF[Dab]FF[Dab]FF[Dab]-OH), the “Permeation of the membrane of Paenibacillus sp. strain YYML68” value is reported as “could efficiently and easily permeate the membrane”.
